Reference: patent US10093683B2, “Factor XIa inhibitors” (Merck Sharp & Dohme Corp., priority 2014, dated 2018)
pKi: −log10 of the molar value. Counter-ions that a name gives are not always drawn.

What follows are compounds tested against human Factor XIa (Homo sapiens (Human), UniProt P03951) (assay: Factor XIa Assay). Conditions: purified human Factor XIa 40 pM, Z-Gly-Pro-Arg-AFC 100 μM, pH 7.4; read-out: FXIa Ki.
Assay type: biochemical
Procedure, shortened: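 Purified human FXIa (40 pM final) hydrolysing fluorogenic Z-Gly-Pro-Arg-AFC (100 μM) in 50 mM HEPES pH 7.4, 150 mM NaCl, 5 mM CaCl2, 0.1% PEG 8000, at room temperature or 37° C. Initial velocities measured after enzyme–inhibitor equilibration; Ki from Vo/Vi versus [I], assuming competitive inhibition.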

human Factor XIa, sequence (P03951 388-625): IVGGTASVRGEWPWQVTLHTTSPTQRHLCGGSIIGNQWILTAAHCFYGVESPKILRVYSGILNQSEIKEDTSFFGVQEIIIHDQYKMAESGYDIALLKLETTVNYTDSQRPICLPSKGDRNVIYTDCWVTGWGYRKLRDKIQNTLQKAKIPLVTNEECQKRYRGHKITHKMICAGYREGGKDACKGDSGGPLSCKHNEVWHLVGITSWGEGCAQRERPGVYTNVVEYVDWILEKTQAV
human Factor XIa, sequence (P03951 19-387 partner): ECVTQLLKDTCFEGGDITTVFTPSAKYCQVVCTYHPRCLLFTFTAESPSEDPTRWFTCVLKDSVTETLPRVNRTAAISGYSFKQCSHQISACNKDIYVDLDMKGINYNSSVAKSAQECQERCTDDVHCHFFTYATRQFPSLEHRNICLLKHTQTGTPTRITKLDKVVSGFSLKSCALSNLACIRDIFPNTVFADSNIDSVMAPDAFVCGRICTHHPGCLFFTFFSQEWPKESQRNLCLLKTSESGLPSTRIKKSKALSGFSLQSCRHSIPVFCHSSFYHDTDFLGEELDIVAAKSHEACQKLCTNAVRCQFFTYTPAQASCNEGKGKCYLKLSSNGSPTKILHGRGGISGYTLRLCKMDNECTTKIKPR

Structure (SMILES)	pKi
COC(=O)Nc1ccc(NC(=O)N[C@@H](Cc2ccccc2)C(=O)N2CCC3(C2)OC(=O)Nc2ccc(Cl)cc23)cc1 (stereo partly drawn) [Example 275, methyl (4-(3-((2S)-1-(6-chloro-2-oxo-1,2-dihydrospiro[benzo[d][1,3]oxazine-4,3′-pyrrolidin]-1′-yl)-1-oxo-3-phenylpropan-2-yl)ureido)phenyl)carbamate]	5.30
Nc1[nH]nc2c1CN(C(=O)N[C@@H](Cc1ccccc1)C(=O)N1CCC3(C1)OC(=O)Nc1ccc(Cl)cc13)C2 (stereo partly drawn) [Example 276, 3-amino-N-((2S)-1-(6-chloro-2-oxo-1,2-dihydrospiro[benzo[d][1,3]oxazine-4,3′-pyrrolidin]-1′-yl)-1-oxo-3-phenylpropan-2-yl)-4,6-dihydropyrrolo[3,4-c]pyrazole-5(2H)-carboxamide]	5.30
O=C(Nc1ccc(C(=O)O)cc1)N[C@@H](Cc1ccccc1)C(=O)N1CCC2(C1)OC(=O)Nc1ccc(Cl)cc12 (stereo partly drawn) [Example 277, 4-(3-((2S)-1-(6-chloro-2-oxo-1,2-dihydrospiro[benzo[d][1,3]oxazine-4,3′-pyrrolidin]-1′-yl)-1-oxo-3-phenylpropan-2-yl)ureido)benzoic acid]	5.30
NC(=O)c1n[nH]c2c1CN(C(=O)N[C@@H](Cc1ccccc1)C(=O)N1CCC3(C1)OC(=O)Nc1ccc(Cl)cc13)C2 (stereo partly drawn) [Example 278, N5-((2S)-1-(6-chloro-2-oxo-1,2-dihydrospiro[benzo[d][1,3]oxazine-4,3′-pyrrolidin]-1′-yl)-1-oxo-3-phenylpropan-2-yl)-4,6-dihydropyrrolo[3,4-c]pyrazole-3,5(1H)-dicarboxamide]	5.30
O=C(NCc1cccc(C(=O)O)c1)N[C@@H](Cc1ccccc1)C(=O)N1CCC2(C1)OC(=O)Nc1ccc(Cl)cc12 (stereo partly drawn) [Example 279, 3-((3-((2S)-1-(6-chloro-2-oxo-1,2-dihydrospiro[benzo[d][1,3]oxazine-4,3′-pyrrolidin]-1′-yl)-1-oxo-3-phenylpropan-2-yl)ureido)methyl)benzoic acid]	5.30
N#Cc1ccc(S(=O)(=O)N[C@@H](Cc2ccccc2)C(=O)N2CCC3(C2)OC(=O)Nc2ccc(Cl)cc23)cc1 (stereo partly drawn) [Example 280, N-((2S)-1-(6-chloro-2-oxo-1,2-dihydrospiro[benzo[d][1,3]oxazine-4,3′-pyrrolidin]-1′-yl)-1-oxo-3-phenylpropan-2-yl)-4-cyanobenzenesulfonamide]	5.30
CNC(=O)Nc1ccc(S(=O)(=O)N[C@@H](Cc2ccccc2)C(=O)N2CCC3(C2)OC(=O)Nc2ccc(Cl)cc23)c(Cl)c1 (stereo partly drawn) [Example 281, 2-chloro-N-((2S)-1-(6-chloro-2-oxo-1,2-dihydrospiro[benzo[d][1,3]oxazine-4,3′-pyrrolidin]-1′-yl)-1-oxo-3-phenylpropan-2-yl)-4-(3-methylureido)benzenesulfonamide]	≤ 5.30
O=C1COc2ccc(S(=O)(=O)N[C@@H](Cc3ccccc3)C(=O)N3CCC4(C3)OC(=O)Nc3ccc(Cl)cc34)cc2N1 (stereo partly drawn) [Example 282, N-((2S)-1-(6-chloro-2-oxo-1,2-dihydrospiro[benzo[d][1,3]oxazine-4,3′-pyrrolidin]-1′-yl)-1-oxo-3-phenylpropan-2-yl)-3-oxo-3,4-dihydro-2H-benzo[b][1,4]oxazine-6-sulfonamide]	≤ 5.30
O=C1Nc2ccc(Cl)cc2C2(CCN(C(=O)[C@H](Cc3ccccc3)NS(=O)(=O)c3ccc(C(=O)O)cc3)C2)O1 (stereo partly drawn) [Example 283, 4-(N-((2S)-1-(6-chloro-2-oxo-1,2-dihydrospiro[benzo[d][1,3]oxazine-4,3′-pyrrolidin]-1′-yl)-1-oxo-3-phenylpropan-2-yl)sulfamoyl)benzoic acid]	≤ 5.30

Same assay, conditions: read-out: FXIa Ki

Structure (SMILES)	pKi
O=C1Nc2ccc(Cl)cc2[C@@]2(CCCN(C(=O)[C@H](CC3CC3)NC(=O)c3ccc(F)c(F)c3)C2)O1 [Example 202, N-((S)-1-((R)-6-chloro-2-oxo-1,2-dihydrospiro[benzo[d][1,3]oxazine-4,3′-piperidin]-1′-yl)-3-cyclopropyl-1-oxopropan-2-yl)-3,4-difluorobenzamide]	6.03
COC(=O)Nc1ccc(C(=O)N[C@@H](CC2CC2)C(=O)N2CCC[C@@]3(C2)OC(=O)Nc2ccc(Cl)cc23)cn1 [Example 204]	6.61
Nc1ccc(C(=O)N[C@@H](CC2CC2)C(=O)N2CCC[C@@]3(C2)OC(=O)Nc2ccc(Cl)cc23)cn1 [Example 205]	7.14
O=C1Nc2ccc(Cl)cc2[C@@]2(CCCN(C(=O)[C@H](CC3CC3)NC(=O)c3cnc4c(c3)CCN4)C2)O1 [Example 207]	5.06
O=C1Nc2ccc(Cl)c(F)c2[C@@]2(CCCN(C(=O)[C@H](CC3CC3)NC(=O)c3ccc4[nH]c(=O)cc(O)c4c3)C2)O1 [Example 210]	9.66
CC(=O)Oc1cc(=O)[nH]c2ccc(C(=O)N[C@@H](Cc3ccccc3)C(=O)N3CCC[C@@]4(C3)OC(=O)Nc3ccc(Cl)c(F)c34)cc12 [Example 211]	7.40
O=C1Nc2ccc(Cl)c(F)c2[C@@]2(CCCN(C(=O)[C@H](Cc3ccccc3)NC(=O)c3ccc(NCC(F)(F)F)nc3)C2)O1 [Example 212]	6.88
N#Cc1n[nH]c2cc(C(=O)N[C@@H](Cc3ccccc3)C(=O)N3CC[C@@]4(C3)OC(=O)Nc3ccc(Cl)cc34)ccc12 [Example 218]	6.61
NC(=O)c1n[nH]c2cc(C(=O)N[C@@H](Cc3ccccc3)C(=O)N3CC[C@@]4(C3)OC(=O)Nc3ccc(Cl)cc34)ccc12 [Example 219]	5.64
O=C1Nc2ccc(Cl)cc2[C@@]2(CCCN(C(=O)[C@H](Cc3ccccc3)NC(=O)c3ccc4c(O)cc(=O)[nH]c4c3)C2)O1 [Example 221]	6.29
COC(=O)Nc1ccc(CN[C@@H](Cc2ccccc2)C(=O)N2CC[C@@]3(C2)OC(=O)Nc2ccc(Cl)cc23)cc1 [Example 222, Methyl (4-((((S)-1-((R)-6-chloro-2-oxo-1,2-dihydrospiro[benzo[d][1,3]oxazine-4,3′-pyrrolidin]-1′-yl)-1-oxo-3-phenylpropan-2-yl)amino)methyl)phenyl)carbamate]	5.06
COC(=O)Nc1ccc(C(N[C@@H](Cc2ccccc2)C(=O)N2CCC3(C2)OC(=O)Nc2ccc(Cl)cc23)C(F)(F)F)cc1 (stereo partly drawn) [Example 223, Methyl (4-(1-(((S)-1-((R)-6-chloro-2-oxo-1,2-dihydrospiro[benzo[d][1,3]oxazine-4,3′-pyrrolidin]-1′-yl)-1-oxo-3-phenylpropan-2-yl)amino)-2,2,2-trifluoroethyl)phenyl)carbamate]	5.06
CC(N[C@@H](Cc1ccccc1)C(=O)N1CC[C@@]2(C1)OC(=O)Nc1ccc(Cl)cc12)c1ccc2c(N)n[nH]c2c1 (stereo partly drawn) [Example 224, (4R)-1′-((1-(3-amino-1H-indazol-6-yl)ethyl)-L-phenylalanyl)-6-chlorospiro[benzo[d][1,3]oxazine-4,3′-pyrrolidin]-2(1H)-one dihydrochloride]	5.06
CCOP(=O)(OCC)c1ccc(C(=O)N[C@H](Cc2ccccc2)C(=O)N2CCC[C@@]3(C2)OC(=O)Nc2ccc(Cl)c(F)c23)cc1 [Example 229, diethyl (4-(((R)-1-((R)-6-chloro-5-fluoro-2-oxo-1,2-dihydrospiro[benzo[d][1,3]oxazine-4,3′-piperidin]-1′-yl)-1-oxo-3-phenylpropan-2-yl)carbamoyl)phenyl)phosphonate]	5.06
O=C1Nc2ccc(Cl)c(F)c2[C@@]2(CCCN(C(=O)[C@H](Cc3ccccc3)NC(=O)c3ccc(-c4nc(=O)o[nH]4)cc3)C2)O1 [Example 232, N-((S)-1-((R)-6-chloro-5-fluoro-2-oxo-1,2-dihydrospiro[benzo[d][1,3]oxazine-4,3′-piperidin]-1′-yl)-1-oxo-3-phenylpropan-2-yl)-4-(5-oxo-2,5-dihydro-1,2,4-oxadiazol-3-yl)benzamide]	6.59
COC(=O)NC12CC(C(=O)N[C@@H](Cc3ccccc3)C(=O)N3CCC[C@@]4(C3)OC(=O)Nc3ccc(Cl)c(F)c34)(C1)C2 [Example 238]	6.98
O=C1Nc2ccc(Cl)cc2[C@@]2(CCCN(C(=O)[C@H](CC3CC3)NC(=O)c3csc(C(=O)O)n3)C2)O1 [Example 239]	6.39
COC(=O)Nc1ccc(C(=O)N[C@@H](Cc2ccccc2)C(=O)N2CCC[C@@]3(C2)OC(=O)Nc2ccc(Cl)c(F)c23)nn1 [Example 242]	6.75
COC(=O)NC12CCC(C(=O)N[C@@H](Cc3ccccc3)C(=O)N3CCC[C@@]4(C3)OC(=O)Nc3ccc(Cl)c(F)c34)(CC1)CC2 [Example 243]	7.02
O=C1Nc2ccc(Cl)c(F)c2[C@@]2(CCCN(C(=O)[C@H](Cc3ccccc3)NC(=O)c3ccc(=O)[nH]c3)C2)O1 [Example 246]	7.11
O=C1Nc2ccc(Cl)c(F)c2[C@@]2(CCCN(C(=O)[C@H](Cc3ccccc3)NC(=O)c3ccc(-n4cn[nH]c4=O)cc3)C2)O1 [Example 247, N-((S)-1-((R)-6-chloro-5-fluoro-2-oxo-1,2-dihydrospiro[benzo[d][1,3]oxazine-4,3′-piperidin]-1′-yl)-1-oxo-3-phenylpropan-2-yl)-4-(5-oxo-1,5-dihydro-4H-1,2,4-triazol-4-yl)benzamide]	7.18
O=C1Nc2ccc(Cl)cc2C2(CCN(C(=O)[C@H](Cc3ccccc3)NC(=O)c3ccc4cc(C(=O)O)ccc4c3)C2)O1 (some centres unmarked) [Example 259]	6.53
Nc1ccc2cc(C(=O)N[C@@H](Cc3ccccc3)C(=O)N3CCC4(C3)OC(=O)Nc3ccc(Cl)cc34)ccc2n1 (some centres unmarked) [Example 261]	5.39
O=C1Nc2ccc(Cl)cc2C2(CCN(C(=O)[C@H](Cc3ccccc3)NC(=O)c3ccc4ncc(O)nc4c3)C2)O1 (some centres unmarked) [Example 262]	6.29
O=C1Nc2ccc(Cl)cc2C2(CCN(C(=O)[C@H](Cc3ccccc3)NC(=O)c3ccc4c(c3)S(=O)(=O)N=CN4)C2)O1 (some centres unmarked) [Example 263]	5.70
O=C1Nc2ccc(Cl)c(F)c2[C@@]2(CCCN(C(=O)[C@H](Cc3cccc(F)c3)NC(=O)c3ccc(C(=O)NCCP(=O)(O)O)cc3)C2)O1 [Example 273, (2-(4-(((S)-1-((R)-6-Chloro-5-fluoro-2-oxo-1,2-dihydrospiro[benzo[d][1,3]oxazine-4,3′-piperidin]-1′-yl)-3-(3-fluorophenyl)-1-oxopropan-2-yl)carbamoyl)benzamido)ethyl)phosphonic acid]	6.44
